Source: article PMC8152814, “The modulatory role of sulfated and non-sulfated small molecule heparan sulfate-glycomimetics in endothelial dysfunction: absolute structural clarification, molecular docking and simulated dynamics, SAR analyses and ADMET studies” (RSC Medicinal Chemistry, 2021)

What was measured:
Assay type in all cases: cell-based, human
Conditions in all cases: averaged % of increase (+) or decrease (−) compared to control (FFA induced oxidatively stressed endothelial cells), n = 3
[1] = tested on: reactive oxygen species (ROS); test: ROS production in FFA-stressed cells
Description: (§1) The assays focused on the production of nitric oxide (NO) and the upregulation of nitric oxide synthase (eNOS), the production of reactive oxygen species (ROS) and the activity of nicotinamide adenine dinucleotide phosphate (NADPH) oxidase (Table 2). From the hypothesised model of heparan sulfate-glycomimetic activity,[17] the glycomimetics are proposed to attenuate the binding of HGF to the cMET receptor. This disruption to MET-receptor activation is proposed to modulate intracellular phosphorylation leading to an upregulation of eNOS and increased output of extracellular NO. […] Overall, the cross examination of NO output and reduction of ROS was used to determine the therapeutic action of the triaged glycomimetics α-4, R-10, S-10 and β-5, as well as 3 non-sulfated intermediates α-2, α-3 and β-3, on free fatty acid (FFA) induced, oxidatively stressed endothelial cell cultures (Table 2).
(§2) Biological assay and AMDET experimental details […]
(§3) Preparation of FFA-albumin complexes and cell treatments
(§4) To generate the in vitro model of oxidative stress, sodium palmitate was bound to bovine serum albumin (BSA) as outlined by Chavez and Summers,S2 with modifications. Sodium palmitate (FFA) was dissolved in EtOH at 60 °C and diluted 1:100 in M199 media supplemented with 2% fatty acid-free bovine serum albumin (BSA) and incubated for 1 h at 37 °C. HepG2 cells were treated with 1 μmol/L of the synthesized HS-glycomimetics in the presence of palmitate (100 μmol/L) for 3 h or pre-treated with glycomimetics for 12 h followed by 3 h palmitate (100 μmol/L). Control cells were incubated in serum free M199 containing 2% (wt/vol) fatty acid-free BSA.
NO release assay and Quantification of ROS production […]
The auto-fluorescence was subtracted from each value. Cells were incubated with 10 μmol/L of the fluorescent probe: 2′-7′-dichlorodihydrofluorescein diacetate (CM-H2DCFDA, Sigma) for 30 min at 37 °C, and the level of fluorescence was determined (excitation 490 nm; emission 540 nm) using a microplate reader (BioTek).
(§5) The level of NADPH-enhanced superoxide anions (O2•−) in HepG2 homogenates was determined by lucigenin-enhanced chemiluminescence.S4 Following the various treatment conditions, cells were homogenized in a buffer (20 mmol/L H2KPO4 and 1 mmol/L EDTA supplemented with aprotinin, leuprotinin, pepstatin and PMSF). The total protein quantified using the Bicinchoninic acid (BCA) assay (Pierce Biotechnology). To 50 μg of total protein, NADPH (100 μmol/L) was added in a total volume of 500 μL, with lucigenin (5 μmol/L) and was injected automatically. Activity was determined by measuring luminescence over 200 s in a scintillation counter (Lumat LB 9507, Berthold, Germany). Basal values of NADPH oxidase activity were subtracted from the experimental values and expressed as RLU/min/μg protein […]
(§6) In situ quantification of ROS species
(§7) Superoxide dismutase (SOD) and catalase (CAT) activity assays, and in situ detection of vascular ROS content. The activity of the enzymes, SOD and CAT, was determined in cell homogenates using assay kits according to the manufacturer's instructions (Cayman; Cat No 706002 and 707002 respectively). A unit of SOD was defined as the amount of enzyme […]
(§8) Similarly, a unit of CAT was […]
defined as the amount required to form 1.0 nmol of formaldehyde per min at 25 °C.S5 […]
HepG2 cells were incubated in serum-free DMEM containing 2% fatty acid-free BSA (control) or palmitate conjugated BSA (100 μmol/L) in the presence of HS-glycomimetics (1 or 10 μmol/L) for 24 h. The cells were incubated for 30 min in Hepes-buffered solution containing 10 μmol/L dihydroethidium (DHE), which intercalates with DNA in the presence of ROS and is detectable by fluorescence. Cells were counterstained with the nuclear stain DAPI at 0.3 μmol/L. In the following 24 h, the cell cultures were examined using a fluorescence microscope (Leica DMIRB). Sections were photographed and fluorescence was quantified using ImageJ. […]

[2] = tested on: NADPH oxidase; test: NADPH oxidase activity (lucigenin chemiluminescence) in cell homogenates; set-up: concentration or dose not given beside the values
Description: as §1, §2, §3
as §4, with “BSA. […]” for “BSA.”
(§9) H2DCFDA, Sigma) for 30 min at 37 °C, and the level of fluorescence was determined (excitation 490 nm; emission 540 nm) using a microplate reader (BioTek).
as §5, §6, §7, §8
(§10) defined as the amount required to form 1.0 nmol of formaldehyde per min at 25 °C.S5

[3] = tested on: eNOS; test: eNOS phosphorylation (Western blot) in FFA-stressed cells
Description: as §1, §2, §3
as §4, with “BSA. […]” for “BSA.”
HepG2 wells were lysed in RIPA buffer containing proteinase inhibitors and the total protein was quantified using BCA protein assay kit (Pierce Biotechnology). Proteins (30 μg/well) were denatured and separated by sodium dodecyl sulfate (SDS)-polyacrylamide gel electrophoresis and transferred to polyvinylidene difluoride (PVDF) membranes. Blots were blocked for 1 h in 5% semi-skimmed milk/Tris-Buffered Saline Tween-20 (TBS-T), probed with primary rabbit anti-phospho-protein kinase B (Akt), rabbit anti-Akt (Santa Cruz Biotechnology), rabbit polyclonal anti-phospho-eNOS (Cell Signaling) overnight at 4 °C followed by washing and incubation with the corresponding horse radish peroxidase-labelled secondary antibody for 1 h at room temperature. After washing with TBS-T, membranes were incubated with ECL reagent and visualized (Amersham Pharmacia Biotech). Densitometry analysis using ImageJ© (version 1.32j, NIH) was used to quantify the protein signal.S7 […]
(typically 0.01 M phosphate buffered saline pH 7.4) so that the final DMSO concentration is 1 % and the final test compound concentrations are 1, 3, 10, 30 and 100 µM. The experiment is performed at 37 °C and each concentration is incubated in 7 replicate wells. The plates are incubated for 2 h at 37 °C before the absorbance is measured at 620nm. Nicardipine (pH dependent) and pyrene (pH independent) are included as control compounds. The solubility is estimated from the concentration of test compound that produces an increase in absorbance above vehicle control (1% DMSO in buffer).

[4] = tested on: nitric oxide (NO); test: NO release assay (DAF-2) in FFA-stressed cells
Description: as §1, §2, §3, §4
NO release assay and Quantification of ROS production
NO release was determined using diaminofluorescein-2 (DAF-2).S3 The cells were washed with PBS and incubated with L-arginine (100 μmol/L in PBS) for 5 min at 37 °C before incubation with DAF-2 (0.1 μmol/L) for 2 min, followed by the calcium ionophore calimycin (A23187, 1 μmol L) for 30 min. L-NAME (100 μmol/L), a nitric oxide inhibitor (NOS), was also added 20 min before the addition of L-arginine in some experiments to determine the involvement of NOS. DAF-2 fluorescence (arbitrary units, AU) was quantified using a microplate reader (BioTek) with excitation and emission wavelengths of 485 nm and 540 nm, respectively. The auto-fluorescence was subtracted from each value. […]
as §9, §5, §6, §7, §8, §10

Compound | ROS production [1] [%] | NADPH oxidase activity [2] [%] | eNOS phosphorylation [3] | NO production [4]
COC(=O)c1cc(OC[C@H](O)CO)ccc1OC[C@@H](O)CO (mixture of isomers) [α-2, methyl 5-((R)-2,3-dihydroxypropoxy)-2-((S)-2,3-dihydroxypropoxy)benzoate] | −36 | −26 | +286% | +46%
O=C(O)c1cc(OCC(O)CO)ccc1OCC(O)CO (mixture of isomers) [α-3, sodium 5-((R)-2,3-dihydroxypropoxy)-2-((±)-2,3-dihydroxypropoxy)benzoate] | −23 | −21 | +312% | +41%
O=C(O)c1cc(OCC(O)CO)ccc1OCC(O)CO (mixture of isomers) [β-3, sodium 5-((S)-2,3-dihydroxypropoxy)-2-((±)-2,3-dihydroxypropoxy)benzoate] | −19 | −27 | +294% | +52%
